In ChEMBL document CHEMBL5338805, “Discovery of the First Subnanomolar PPARα/δ Dual Agonist for the Treatment of Cholestatic Liver Diseases” (J Med Chem, 2023):
The source made the active and inactive calls.

Columns and labels:
[1] = target: Oxysterols receptor LXR-alpha (Homo sapiens) (UniProt Q13133); assay: Agonist activity at LXRalpha (unknown origin) transfected in african green monkey COS7 cells assessed transactivation incubated at 1 uM for 16 hrs by luciferase assay; assay type: cell-based
[2] = Down-streaming of Oatp1 gene expression in C57BL/6JNifdc mouse liver assessed as hepatic resorption of bile acid administered at 0.03 mg/kg, po for 3 days measured after 6 hrs of last administration by real-time PCR analysis; assay type: ADME, organism-based; details: in vivo, 78 h
[3] = Anti-cholestatic activity in ANIT-induced C57BL/6Nifdc mouse model assessed as downregulation of proinflammatory Il6 gene at 0.03 to 0.1 mg/kg, po upto 42 hrs measured after 48 hrs; assay type: ADME, organism-based; details: in vivo, 90 h, dose 0.03-0.1 mg/kg
[4] = Mutagenicity in Salmonella typhimurium TA98 measured at 0.21 to 16.67 mg/ml for 72 hrs by mini-Ames test; assay type: toxicity; details: salmonella enterica subsp. enterica serovar typhimurium, dose 0.21-16.67 mg/ml
[5] = target: Voltage-gated inwardly rectifying potassium channel KCNH2 (Homo sapiens, UniProt Q12809); assay: Inhibition of human ERG by whole cell patch clamp method; assay type: toxicity
[6] = Anti-cholestatic activity in ANIT-induced C57BL/6Nifdc mouse model assessed as decrease in serum aspartate aminotransferase at 0.03 to 0.1 mg/kg, po upto 42 hrs measured after 48 hrs; assay type: ADME, organism-based; details: in vivo, 90 h, dose 0.03-0.1 mg/kg
[7] = Upregulation of Mdr2 gene expression in C57BL/6JNifdc mouse liver assessed as increased efflux of bile acid administered at 0.03 to 0.1 mg/kg, po for 3 days measured after 6 hrs of last administration by real-time PCR analysis; assay type: ADME, organism-based; details: in vivo, 78 h, dose 0.03-0.1 mg/kg, time 3.25 day
[8] = Mutagenicity in Salmonella typhimurium TA100 measured at 0.21 to 16.67 mg/ml for 72 hrs by mini-Ames test; assay type: toxicity; details: salmonella enterica subsp. enterica serovar typhimurium, dose 0.21-16.67 mg/ml
[9] = Anti-fibrosis activity in Ccl4-induced C57BL/6Nifdc mouse model assessed as decrease in hydroxyproline in liver administered orally for 3 weeks; assay type: ADME; details: in vivo, po, 504 h, dose 0.03-0.1 mg/kg
[10] = target: Retinoic acid receptor gamma (Homo sapiens) (UniProt P13631); assay: Agonist activity at RARgamma (unknown origin) transfected in african green monkey COS7 cells assessed transactivation incubated at 1 uM for 16 hrs by luciferase assay; assay type: cell-based
[11] = Down-streaming of Cyp27a1 gene expression in C57BL/6JNifdc mouse liver assessed as hepatic resorption of bile acid administered at 0.03 mg/kg, po for 3 days measured after 6 hrs of last administration by real-time PCR analysis; assay type: ADME, organism-based; details: in vivo, 78 h
[12] = Anti-cholestatic activity in ANIT-induced C57BL/6Nifdc mouse model assessed as decrease in liver TCA at 0.03 to 0.1 mg/kg, po upto 42 hrs measured after 48 hrs; assay type: ADME, organism-based; details: in vivo, 90 h, dose 0.03-0.1 mg/kg
[13] = Upregulation of Mrp4 gene expression in C57BL/6JNifdc mouse liver assessed as increased efflux of bile acid administered at 0.03 to 0.1 mg/kg, po for 3 days measured after 6 hrs of last administration by real-time PCR analysis; assay type: ADME, organism-based; details: in vivo, 78 h, dose 0.03-0.1 mg/kg, time 3.25 day
[14] = target: Bile acid receptor (Homo sapiens) (UniProt Q96RI1); assay: Agonist activity at FXR (unknown origin) transfected in african green monkey COS7 cells assessed transactivation incubated at 1 uM for 16 hrs by luciferase assay; assay type: cell-based
[15] = Anti-cholestatic activity in ANIT-induced C57BL/6Nifdc mouse model assessed as downregulation of proinflammatory Il1b gene at 0.03 to 0.1 mg/kg, po upto 42 hrs measured after 48 hrs; assay type: ADME, organism-based; details: in vivo, 90 h, dose 0.03-0.1 mg/kg
[16] = Down-streaming of Cyp27a1 gene expression in C57BL/6JNifdc mouse liver assessed as hepatic resorption of bile acid administered at 0.03 to 0.1 mg/kg, po for 3 days measured after 6 hrs of last administration by real-time PCR analysis; assay type: ADME, organism-based; details: in vivo, 78 h, dose 0.03-0.1 mg/kg, time 3.25 day
[17] = Anti-cholestatic activity in ANIT-induced C57BL/6Nifdc mouse model assessed as decrease in liver HCA at 0.03 to 0.1 mg/kg, po upto 42 hrs measured after 48 hrs; assay type: ADME, organism-based; details: in vivo, 90 h, dose 0.03-0.1 mg/kg
[18] = Down-streaming of NTCP gene expression in C57BL/6JNifdc mouse liver assessed as hepatic resorption of bile acid administered at 0.03 mg/kg, po for 3 days measured after 6 hrs of last administration by real-time PCR analysis; assay type: ADME, organism-based; details: in vivo, 78 h
[19] = Anti-cholestatic activity in ANIT-induced C57BL/6Nifdc mouse model assessed as decrease in liver T-MCA at 0.03 to 0.1 mg/kg, po upto 42 hrs measured after 48 hrs; assay type: ADME, organism-based; details: in vivo, 90 h, dose 0.03-0.1 mg/kg
[20] = Anti-cholestatic activity in ANIT-induced C57BL/6Nifdc mouse model assessed as decrease in serum TBA at 0.03 to 0.1 mg/kg, po upto 42 hrs measured after 48 hrs; assay type: ADME, organism-based; details: in vivo, 90 h, dose 0.03-0.1 mg/kg
[21] = Oral bioavailability in fasted Sprague-Dawley rat at 10 mg/kg measured at 0.083 to 24 hrs by LC-MS/MS analysis; assay type: ADME, organism-based; details: in vivo, time 0.083-24 hrs
[22] = target: Nuclear receptor ROR-beta (Homo sapiens) (UniProt Q92753); assay: Agonist activity at RORbeta (unknown origin) transfected in african green monkey COS7 cells assessed transactivation incubated at 1 uM for 16 hrs by luciferase assay; assay type: cell-based
[23] = Anti-cholestatic activity in ANIT-induced C57BL/6Nifdc mouse model assessed as decrease in liver 12-OCDCA at 0.03 to 0.1 mg/kg, po upto 42 hrs measured after 48 hrs; assay type: ADME, organism-based; details: in vivo, 90 h, dose 0.03-0.1 mg/kg
[24] = Anti-cholestatic activity in ANIT-induced C57BL/6Nifdc mouse model assessed as decrease in liver 3-H-7, 12-Dkca at 0.03 to 0.1 mg/kg, po upto 42 hrs measured after 48 hrs; assay type: ADME, organism-based; details: in vivo, 90 h, dose 0.03-0.1 mg/kg
[25] = In vivo upregulation of PPAR delta in C57BL/6JNifdc mouse liver administered at 0.03 mg/kg, po for 3 days measured after 6 hrs of last administration by real-time PCR analysis; assay type: ADME, organism-based; details: 78 h
[26] = Anti-cholestatic activity in ANIT-induced C57BL/6Nifdc mouse model assessed as downregulation of NF-kappaB signalling pathway at 0.03 to 0.1 mg/kg, po upto 42 hrs measured after 48 hrs; assay type: ADME, organism-based; details: in vivo, 90 h, dose 0.03-0.1 mg/kg
[27] = Clearance in fasted Sprague-Dawley rat at 10 mg/kg, po measured at 0.083 to 24 hrs by LC-MS/MS analysis; assay type: ADME, organism-based; details: in vivo, time 0.083-24 hrs
[28] = Anti-cholestatic activity in ANIT-induced C57BL/6Nifdc mouse model assessed as decrease in liver TCDCA at 0.03 to 0.1 mg/kg, po upto 42 hrs measured after 48 hrs; assay type: ADME, organism-based; details: in vivo, 90 h, dose 0.03-0.1 mg/kg
[29] = target: Nuclear receptor ROR-alpha (Homo sapiens) (UniProt P35398); assay: Agonist activity at RORalpha (unknown origin) transfected in african green monkey COS7 cells assessed transactivation incubated at 1 uM for 16 hrs by luciferase assay; assay type: cell-based
[30] = Down-streaming of NTCP gene expression in C57BL/6JNifdc mouse liver assessed as hepatic resorption of bile acid administered at 0.03 to 0.1 mg/kg, po for 3 days measured after 6 hrs of last administration by real-time PCR analysis; assay type: ADME, organism-based; details: in vivo, 78 h, dose 0.03-0.1 mg/kg, time 3.25 day
[31] = Anti-cholestatic activity in ANIT-induced C57BL/6Nifdc mouse model assessed as downregulation of proinflammatory Nos2 gene at 0.03 to 0.1 mg/kg, po upto 42 hrs measured after 48 hrs; assay type: ADME, organism-based; details: in vivo, 90 h, dose 0.03-0.1 mg/kg

Bile acid receptor (Homo sapiens), sequence (Q96RI1 whole entry): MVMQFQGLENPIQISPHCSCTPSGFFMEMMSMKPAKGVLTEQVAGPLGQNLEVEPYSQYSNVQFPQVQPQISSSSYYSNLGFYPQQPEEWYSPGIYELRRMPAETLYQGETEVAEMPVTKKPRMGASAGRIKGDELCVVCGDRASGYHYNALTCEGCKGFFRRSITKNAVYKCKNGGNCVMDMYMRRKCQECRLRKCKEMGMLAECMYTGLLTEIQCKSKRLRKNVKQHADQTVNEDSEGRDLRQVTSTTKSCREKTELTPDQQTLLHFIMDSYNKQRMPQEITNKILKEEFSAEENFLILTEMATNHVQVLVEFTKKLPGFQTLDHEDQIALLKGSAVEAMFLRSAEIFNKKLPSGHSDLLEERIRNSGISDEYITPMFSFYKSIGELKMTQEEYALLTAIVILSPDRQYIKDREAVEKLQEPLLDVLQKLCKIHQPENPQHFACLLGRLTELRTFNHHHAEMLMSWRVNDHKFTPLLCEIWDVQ
Oxysterols receptor LXR-alpha (Homo sapiens), sequence (Q13133 whole entry): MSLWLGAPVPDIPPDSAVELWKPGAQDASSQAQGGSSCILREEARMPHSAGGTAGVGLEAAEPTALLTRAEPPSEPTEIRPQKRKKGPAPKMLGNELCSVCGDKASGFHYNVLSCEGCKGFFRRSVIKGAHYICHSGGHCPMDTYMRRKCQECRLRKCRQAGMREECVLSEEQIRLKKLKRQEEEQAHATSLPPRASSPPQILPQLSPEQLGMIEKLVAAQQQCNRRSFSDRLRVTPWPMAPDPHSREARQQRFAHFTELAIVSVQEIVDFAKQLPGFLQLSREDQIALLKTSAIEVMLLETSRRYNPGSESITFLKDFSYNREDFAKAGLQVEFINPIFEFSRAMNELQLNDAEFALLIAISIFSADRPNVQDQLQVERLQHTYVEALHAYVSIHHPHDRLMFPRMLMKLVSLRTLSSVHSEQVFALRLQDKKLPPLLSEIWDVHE
Retinoic acid receptor gamma (Homo sapiens), sequence (P13631 whole entry): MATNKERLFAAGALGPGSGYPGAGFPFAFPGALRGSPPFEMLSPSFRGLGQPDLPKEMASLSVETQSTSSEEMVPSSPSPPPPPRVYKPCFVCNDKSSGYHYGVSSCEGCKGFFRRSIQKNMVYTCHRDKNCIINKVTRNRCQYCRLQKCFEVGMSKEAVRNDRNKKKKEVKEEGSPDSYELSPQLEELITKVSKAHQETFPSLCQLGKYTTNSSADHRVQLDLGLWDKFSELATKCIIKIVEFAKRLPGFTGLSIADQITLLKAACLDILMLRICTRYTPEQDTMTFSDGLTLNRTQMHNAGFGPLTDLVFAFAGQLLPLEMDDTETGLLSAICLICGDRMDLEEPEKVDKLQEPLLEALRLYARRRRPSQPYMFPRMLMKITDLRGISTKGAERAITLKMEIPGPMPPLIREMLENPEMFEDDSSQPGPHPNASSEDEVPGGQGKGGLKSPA
Nuclear receptor ROR-beta (Homo sapiens), sequence (Q92753 whole entry): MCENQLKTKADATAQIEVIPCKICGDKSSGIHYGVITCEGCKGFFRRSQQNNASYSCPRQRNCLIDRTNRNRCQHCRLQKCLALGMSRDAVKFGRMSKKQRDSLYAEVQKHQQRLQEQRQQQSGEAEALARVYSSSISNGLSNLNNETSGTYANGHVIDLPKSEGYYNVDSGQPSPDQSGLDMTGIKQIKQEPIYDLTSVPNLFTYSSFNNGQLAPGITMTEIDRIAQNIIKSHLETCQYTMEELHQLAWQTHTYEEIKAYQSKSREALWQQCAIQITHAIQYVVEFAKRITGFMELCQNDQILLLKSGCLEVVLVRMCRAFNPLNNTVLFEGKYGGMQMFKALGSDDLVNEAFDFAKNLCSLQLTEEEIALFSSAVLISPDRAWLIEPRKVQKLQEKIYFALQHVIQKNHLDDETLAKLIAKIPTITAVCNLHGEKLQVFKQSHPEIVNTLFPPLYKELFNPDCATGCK
Voltage-gated inwardly rectifying potassium channel KCNH2, sequence (Q12809 whole entry): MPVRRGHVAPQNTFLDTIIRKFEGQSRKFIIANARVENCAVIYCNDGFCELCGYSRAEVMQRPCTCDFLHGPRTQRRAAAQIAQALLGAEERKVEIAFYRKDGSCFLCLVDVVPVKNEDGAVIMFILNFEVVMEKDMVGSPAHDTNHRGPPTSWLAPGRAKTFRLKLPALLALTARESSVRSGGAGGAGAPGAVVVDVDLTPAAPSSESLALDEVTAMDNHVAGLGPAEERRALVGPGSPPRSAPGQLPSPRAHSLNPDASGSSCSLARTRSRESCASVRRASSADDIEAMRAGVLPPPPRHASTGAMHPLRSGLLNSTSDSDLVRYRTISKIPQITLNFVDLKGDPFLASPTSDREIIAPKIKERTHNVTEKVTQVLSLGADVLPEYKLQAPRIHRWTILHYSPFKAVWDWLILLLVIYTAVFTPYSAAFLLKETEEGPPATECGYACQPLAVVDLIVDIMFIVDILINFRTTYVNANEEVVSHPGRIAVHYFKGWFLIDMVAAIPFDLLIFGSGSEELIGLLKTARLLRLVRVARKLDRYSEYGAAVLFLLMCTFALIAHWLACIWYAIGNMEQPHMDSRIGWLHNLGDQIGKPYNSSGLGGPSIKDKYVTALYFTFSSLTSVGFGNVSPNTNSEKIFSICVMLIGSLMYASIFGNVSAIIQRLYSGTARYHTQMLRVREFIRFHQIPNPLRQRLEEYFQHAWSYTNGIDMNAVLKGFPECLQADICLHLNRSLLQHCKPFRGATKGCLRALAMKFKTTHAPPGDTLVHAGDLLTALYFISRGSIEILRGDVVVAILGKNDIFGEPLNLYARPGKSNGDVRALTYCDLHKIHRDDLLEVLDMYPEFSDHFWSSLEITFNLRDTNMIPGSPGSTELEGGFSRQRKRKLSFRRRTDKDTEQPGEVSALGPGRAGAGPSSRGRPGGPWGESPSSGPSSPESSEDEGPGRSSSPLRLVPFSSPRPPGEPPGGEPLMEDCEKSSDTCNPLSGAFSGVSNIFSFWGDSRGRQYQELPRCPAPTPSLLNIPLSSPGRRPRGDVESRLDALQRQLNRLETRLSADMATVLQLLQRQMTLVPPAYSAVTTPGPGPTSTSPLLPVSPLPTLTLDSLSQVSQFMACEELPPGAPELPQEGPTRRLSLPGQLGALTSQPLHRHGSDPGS
Nuclear receptor ROR-alpha (Homo sapiens), sequence (P35398 whole entry): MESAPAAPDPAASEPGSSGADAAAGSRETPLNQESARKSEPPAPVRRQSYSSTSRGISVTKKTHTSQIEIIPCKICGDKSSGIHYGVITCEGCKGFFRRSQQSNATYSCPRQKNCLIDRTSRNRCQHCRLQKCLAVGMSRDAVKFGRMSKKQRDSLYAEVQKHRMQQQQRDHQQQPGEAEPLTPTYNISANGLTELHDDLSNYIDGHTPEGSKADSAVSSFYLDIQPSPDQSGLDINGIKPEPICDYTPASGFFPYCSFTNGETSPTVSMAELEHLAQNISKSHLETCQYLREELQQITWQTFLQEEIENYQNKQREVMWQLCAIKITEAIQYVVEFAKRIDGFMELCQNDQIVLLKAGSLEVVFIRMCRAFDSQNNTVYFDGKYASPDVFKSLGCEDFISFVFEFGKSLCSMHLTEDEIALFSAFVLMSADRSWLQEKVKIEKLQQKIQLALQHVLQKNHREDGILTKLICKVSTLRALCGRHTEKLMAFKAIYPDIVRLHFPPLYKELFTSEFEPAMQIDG

Cc1cc(CN2C(=O)CN(c3ccc(C(F)(F)F)cc3)C2=O)cc(C)c1OC(C)(C)C(=O)O
7.6 mL/min/kg: CL [27]
> 30 µM: IC50 [5]
Non-Toxic: Activity [4] | Activity [8]
inactive: Activity [1] | Activity [10] | Activity [14] | Activity [22] | Activity [29]
Active: Activity [2] | Activity [3] | Activity [6] | Activity [7] | Activity [11] | Activity [12] | Activity [13] | Activity [15] | Activity [16] | Activity [17] | Activity [18] | Activity [19] | Activity [20] | Activity [23] | Activity [24] | Activity [25] | Activity [26] | Activity [28] | Activity [30] | Activity [31]
105%: bioavailability [21]
Dose-Dependent Effect: Activity [9]
